Measured values published in the supplement of paper PMC10307832.

These cell lines were tested with CC(C)N(CCCNC(=O)Nc1ccc(C(C)(C)C)cc1)C[C@H]1O[C@@H](n2ccc3c(N)ncnc32)[C@H](O)[C@@H]1O + O=C(c1cc(Cc2n[nH]c(=O)c3ccccc23)ccc1F)N1CCN(C(=O)C2CC2)CC1 [Olaparib] (partner 8 µM) (assay: relative viability (nuclei count vs DMSO), 5 days (fraction); higher = more cells survive). Details: first compound 0.8 µM.
In short: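 For relative viability, nuclei counts in treated wells were divided by those in vehicle wells. Lung cancer cell lines had been pin-tool dosed in 1536-well plates the day after seeding and cultured for 5 days, then fixed and stained in one step (final 0.05% Triton X-100, 1% formaldehyde, 1 ug/ml Hoechst) and imaged at 4×. Doses were one drug alone or a fixed anchor-drug dose plus five library-drug doses (not always all listed) in √10 steps, and values are duplicate-plate medians.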

Row | Cell Line | relative viability
1 | NCI-H2170 | 0.619
2 | NCI-H3122 | 0.536
3 | HOP-62 | 0.261
4 | HCC-44 | 0.981
5 | A549 | 0.251
6 | NCI-H522 | 0.583
7 | LU99A | 0.264
8 | BEN | 1.24
9 | HARA | 0.764
10 | HCC-78 | 0.691
11 | LCLC-97TM1 | 0.205
12 | NCI-H2023 | 0.458
13 | A-427 | 0.613
14 | NCI-H460 | 0.388
15 | NCI-H838 | 0.794
16 | NCI-H1734 | 0.539
17 | NCI-H596 | 0.531
18 | NCI-H2405 | 0.755
19 | NCI-H1395 | 0.405
20 | NCI-H1915 | 0.229

Row | Cell Line | relative viability
21 | HCC-827 | 0.562
22 | LXF-289 | 1.1
23 | NCI-H2347 | 0.534
24 | NCI-H1299 | 1
25 | NCI-H661 | 0.795
26 | CAL-12T | 0.702
27 | NCI-H1651 | 0.17
28 | EPLC-272H | 0.764
29 | NCI-H23 | 0.266
30 | NCI-H1792 | 0.365
31 | NCI-H1355 | 0.667
32 | NCI-H322M | 0.72
33 | NCI-H1437 | 0.624
34 | NCI-H1755 | 0.861
35 | NCI-H2085 | 0.873
36 | HCC-15 | 0.702
37 | NCI-H1793 | 0.864
38 | RERF-LC-KJ | 0.843
39 | EKVX | 0.67

Same assay, conditions: first compound 2.53 µM

Row | Cell Line | relative viability
40 | NCI-H2342 | 0.431
41 | PC-14 | 0.257
42 | NCI-H1650 | 0.642
43 | EBC-1 | 0.85
44 | NCI-H1703 | 0.571
45 | NCI-H2009 | 0.629
46 | NCI-H1993 | 1.01
47 | NCI-H520 | 0.331
48 | PC-3 [JPC-3] | 1.11
49 | LCLC-103H | 0.77
50 | NCI-H647 | 0.587
51 | NCI-H2228 | 0.601
52 | EMC-BAC-2 | 0.389
53 | NCI-H2087 | 0.667
54 | Calu-6 | 0.552
55 | HCC-366 | 0.292
56 | NCI-H1666 | 0.739
57 | NCI-H650 | 0.32
58 | LK-2 | 0.632
59 | NCI-H2126 | 0.883
60 | NCI-H1648 | 0.909
61 | SK-MES-1 | 0.713
62 | H3255 | 0.598
63 | COR-L23 | 0.347

Row | Cell Line | relative viability
64 | COR-L 105 | 0.652
65 | IA-LM | 0.931
66 | LOU-NH91 | 0.984
67 | ChaGo-K-1 | 0.392
68 | NCI-H2170 | 0.601
69 | NCI-H3122 | 0.663
70 | HOP-62 | 0.347
71 | HCC-44 | 1
72 | A549 | 0.535
73 | NCI-H522 | 0.623
74 | LU99A | 0.275
75 | BEN | 1.03
76 | HARA | 0.538
77 | SW 900 | 0.798
78 | HCC-78 | 0.792
79 | NCI-H441 | 0.544
80 | LCLC-97TM1 | 0.319
81 | NCI-H2023 | 0.446
82 | A-427 | 0.771
83 | NCI-H460 | 0.33
84 | NCI-H838 | 0.812
85 | NCI-H1734 | 0.662
86 | NCI-H596 | 0.704
87 | NCI-H2405 | 0.961

Row | Cell Line | relative viability
88 | NCI-H1395 | 0.464
89 | 201T | 0.809
90 | NCI-H1915 | 0.236
91 | HCC-827 | 0.616
92 | LXF-289 | 1.1
93 | NCI-H2347 | 0.655
94 | NCI-H1299 | 0.96
95 | NCI-H661 | 0.786
96 | CAL-12T | 0.698
97 | NCI-H1651 | 0.185
98 | EPLC-272H | 0.734
99 | NCI-H23 | 0.345
100 | NCI-H1792 | 0.374
101 | NCI-H1355 | 0.754
102 | NCI-H322M | 0.765
103 | NCI-H1437 | 0.592
104 | NCI-H1755 | 0.828
105 | NCI-H2085 | 0.867
106 | HCC-15 | 0.758
107 | NCI-H1793 | 0.848
108 | RERF-LC-KJ | 1
109 | EKVX | 0.803

Same assay, conditions: first compound 8 µM

Row | Cell Line | relative viability
110 | NCI-H2342 | 0.444
111 | PC-14 | 0.247
112 | NCI-H1650 | 0.754
113 | EBC-1 | 0.657
114 | NCI-H1703 | 0.349
115 | NCI-H2009 | 0.64
116 | NCI-H1993 | 1.01
117 | NCI-H520 | 0.333
118 | PC-3 [JPC-3] | 1.07
119 | LCLC-103H | 0.775
120 | NCI-H647 | 0.543
121 | NCI-H2228 | 0.615
122 | EMC-BAC-2 | 0.435
123 | NCI-H2087 | 0.581
124 | Calu-6 | 0.57
125 | HCC-366 | 0.281
126 | NCI-H1666 | 0.698
127 | NCI-H650 | 0.328
128 | LK-2 | 0.82
129 | NCI-H2126 | 0.778
130 | NCI-H1648 | 0.826
131 | SK-MES-1 | 0.662
132 | H3255 | 0.517
133 | COR-L23 | 0.29
134 | COR-L 105 | 0.649
135 | IA-LM | 0.686
136 | LOU-NH91 | 0.899

Row | Cell Line | relative viability
137 | ChaGo-K-1 | 0.389
138 | NCI-H2170 | 0.539
139 | NCI-H3122 | 0.512
140 | HOP-62 | 0.314
141 | HCC-44 | 0.972
142 | A549 | 0.317
143 | NCI-H522 | 0.732
144 | LU99A | 0.237
145 | BEN | 1.02
146 | HARA | 0.494
147 | SW 900 | 0.772
148 | HCC-78 | 0.804
149 | NCI-H441 | 0.573
150 | LCLC-97TM1 | 0.294
151 | NCI-H2023 | 0.43
152 | A-427 | 0.702
153 | NCI-H460 | 0.345
154 | NCI-H838 | 0.728
155 | NCI-H1734 | 0.529
156 | NCI-H596 | 0.723
157 | NCI-H2405 | 0.842
158 | NCI-H1395 | 0.438
159 | 201T | 0.797
160 | NCI-H1915 | 0.23
161 | HCC-827 | 0.488
162 | LXF-289 | 0.991
